Source: patent US7888386B2, “3-(phenoxyphenylmethyl)pyrrolidine compounds” (Theravance, Inc., priority 2008, dated 2011)
Read-outs that look alike come from different tables or passages of the source.

Experiments:
[1] = biological target: T1, hSERT (Homo sapiens, UniProt P31645); test: hSERT binding assay (Assay 1)
T1 construct: expressed in transfected cells; host or cells: HEK-293 derived cell line, stably transfected; membrane preparation
Procedure: (§1) Membrane radioligand binding assays were used to measure competitive inhibition of labeled ligand (^3H-citalopram or ^3H-nisoxetine or ^3H-WIN35428) binding to membranes prepared from cells expressing the respective human recombinant transporter (hSERT or hNET or hDAT) in order to determine the pKi values of test compounds at the transporters.
(§2) Recombinant human embryonic kidney (HEK-293) derived cell lines stably transfected with hSERT or hNET, respectively, were grown in DMEM medium supplemented with 10% dialyzed FBS (for hSERT) or FBS (for hNET), 100 μg/ml penicillin, 100 μg/ml streptomycin, 2 mM L-glutamine and 250 μg/ml of the aminoglycoside antibiotic G418, in a 5% CO2 humidified incubator at 37° C. When cultures reached 80% confluence, the cells were washed thoroughly in PBS (without Ca^2+ and Mg^2+) and lifted with 5 mM EDTA in PBS. Cells were pelleted by centrifugation, resuspended in lysis buffer (10 mM Tris-HCl, pH 7.5 containing 1 mM EDTA), homogenized, pelleted by centrifugation, then resuspended in 50 mM Tris-HCl, pH 7.5 and 10% sucrose at 4° C. Protein concentration of the membrane suspension was determined using a Bio-Rad Bradford Protein Assay kit. Membranes were snap frozen and stored at −80° C. Chinese hamster ovary membranes expressing hDAT (CHO-DAT) were purchased from PerkinElmer and stored at −80° C.
(§3) Stock solutions (10 mM in DMSO) of test compound were prepared and serial dilutions made using Dilution Buffer (50 mM Tris-HCl, 120 mM NaCl, 5 mM KCl, pH 7.4, 0.1% BSA, 400 μM ascorbic acid).
(§4) Following a 60 minute incubation at 22° C. (or a period sufficient to reach equilibrium), the membranes were harvested by rapid filtration over a 96-well UniFilter GF/B plate, pretreated with 0.3% polyethyleneimine, and washed 6 times with 300 μl wash buffer (50 mM Tris-HCl, 0.9% NaCl, pH 7.5 at 4° C.). Plates were dried overnight at room temperature, ˜45 μl of MicroScint™-20 (Perkin Elmer) added and bound radioactivity quantitated via liquid scintillation spectroscopy. Competitive inhibition curves and saturation isotherms were analyzed using GraphPad Prism Software package (GraphPad Software, Inc., San Diego, Calif.). IC50 values were generated from concentration response curves using the Sigmoidal Dose Response (variable slope) algorithm in Prism GraphPad.

[2] = biological target: T2, hNET (Homo sapiens, UniProt P23975); test: hNET binding assay (Assay 1); conditions: read-out: NET pKi (converted)
T2 construct: expressed in transfected cells; host or cells: HEK-293 derived cell line, stably transfected; membrane preparation
Procedure: as §1, §2, §3, §4

[3] = ratio of SERT Ki to NET Ki from binding assays
[4] = ratio of SERT Ki to NET Ki (binding)

T1 sequence (P31645 whole entry): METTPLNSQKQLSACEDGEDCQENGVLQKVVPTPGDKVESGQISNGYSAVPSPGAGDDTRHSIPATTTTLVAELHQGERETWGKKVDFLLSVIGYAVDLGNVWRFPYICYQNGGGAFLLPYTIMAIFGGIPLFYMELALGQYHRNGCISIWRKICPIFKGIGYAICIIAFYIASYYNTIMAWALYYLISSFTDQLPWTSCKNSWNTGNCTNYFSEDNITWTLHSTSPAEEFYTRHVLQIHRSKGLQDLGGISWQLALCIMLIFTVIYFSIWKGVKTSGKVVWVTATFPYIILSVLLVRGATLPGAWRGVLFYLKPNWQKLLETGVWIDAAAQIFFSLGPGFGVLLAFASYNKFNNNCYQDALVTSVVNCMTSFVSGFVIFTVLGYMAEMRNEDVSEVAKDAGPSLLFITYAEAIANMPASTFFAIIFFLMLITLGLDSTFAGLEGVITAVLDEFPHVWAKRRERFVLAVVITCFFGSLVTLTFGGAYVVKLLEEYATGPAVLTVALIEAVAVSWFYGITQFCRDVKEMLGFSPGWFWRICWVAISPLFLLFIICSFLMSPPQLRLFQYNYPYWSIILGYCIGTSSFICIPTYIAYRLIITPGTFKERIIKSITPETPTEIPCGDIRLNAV
T2 sequence (P23975 whole entry): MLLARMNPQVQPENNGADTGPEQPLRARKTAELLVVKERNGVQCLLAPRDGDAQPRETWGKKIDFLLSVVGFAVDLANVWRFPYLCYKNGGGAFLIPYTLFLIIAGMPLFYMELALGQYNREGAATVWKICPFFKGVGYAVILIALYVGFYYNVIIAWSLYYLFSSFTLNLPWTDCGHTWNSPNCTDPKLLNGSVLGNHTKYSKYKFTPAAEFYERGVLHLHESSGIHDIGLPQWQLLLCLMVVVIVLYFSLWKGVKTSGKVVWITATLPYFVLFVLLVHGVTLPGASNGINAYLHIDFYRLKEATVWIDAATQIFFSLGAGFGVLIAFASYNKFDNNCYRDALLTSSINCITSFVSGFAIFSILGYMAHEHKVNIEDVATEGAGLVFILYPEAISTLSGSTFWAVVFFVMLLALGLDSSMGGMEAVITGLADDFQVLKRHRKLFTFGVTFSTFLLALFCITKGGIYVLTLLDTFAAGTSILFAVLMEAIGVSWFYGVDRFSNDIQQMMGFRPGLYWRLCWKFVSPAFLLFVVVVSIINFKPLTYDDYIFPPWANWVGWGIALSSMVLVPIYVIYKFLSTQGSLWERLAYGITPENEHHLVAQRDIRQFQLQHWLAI

COc1ccc(F)cc1OC(c1cc(F)cc(F)c1)C1CCNC1 (centres unmarked) [30-6]
SERT Ki/NET Ki [1, 3]: 0.4 | Ki ([2]; hNET binding assay): 5.01 nM

COc1ccc(Cl)cc1OC(c1cccc(Cl)c1)C1CCNC1 (centres unmarked) [30-9]
SERT Ki/NET Ki [1, 3]: 0.6 | Ki ([2]; hNET binding assay): 7.94 nM

Fc1cccc(Cl)c1O[C@@H](c1ccccc1)[C@H]1CCNC1 [31-4]
SERT Ki/NET Ki [1, 3]: 40 | Ki ([2]; hNET binding assay): 0.126 nM

Fc1cccc(Cl)c1O[C@H](c1ccccc1)[C@@H]1CCNC1 [31-5]
SERT Ki/NET Ki [1, 3]: 1.3 | Ki ([2]; hNET binding assay): 0.631 nM

Cc1cccc(F)c1OC(c1ccccc1)C1CCNC1 (centres unmarked) [31-6]
SERT Ki/NET Ki [1, 3]: 2 | Ki ([2]; hNET binding assay): 1.58 nM

Cc1cccc(F)c1O[C@@H](c1ccccc1)[C@H]1CCNC1 [31-7]
SERT Ki/NET Ki [1, 3]: 5 | Ki ([2]; hNET binding assay): 0.2 nM

Cc1cccc(Cl)c1OC(c1ccccc1)C1CCNC1 (centres unmarked) [31-11]
SERT Ki/NET Ki [1, 3]: 1.3 | Ki ([2]; hNET binding assay): 2 nM

Cc1cccc(Cl)c1O[C@@H](c1ccccc1)[C@H]1CCNC1 [31-12]
SERT Ki/NET Ki [1, 3]: 1.6 | Ki ([2]; hNET binding assay): 1 nM

COc1cccc(F)c1OC(c1ccccc1)C1CCNC1 (centres unmarked) [31-15]
SERT Ki/NET Ki [1, 3]: 2 | Ki ([2]; hNET binding assay): 2 nM

COc1cccc(F)c1O[C@@H](c1ccccc1)[C@H]1CCNC1 [31-16]
SERT Ki/NET Ki [1, 3]: 79 | Ki ([2]; hNET binding assay): 0.2 nM

COC(=O)c1cccc(Cl)c1O[C@@H](c1ccccc1)[C@H]1CCNC1 [31-17]
SERT Ki/NET Ki [1, 3]: 25 | Ki ([2]; hNET binding assay): 3.16 nM

Cc1ccc(OC(c2ccccc2)C2CCNC2)cc1F (centres unmarked) [33-2]
SERT Ki/NET Ki [1, 3]: 0.1 | Ki ([2]; hNET binding assay): 5.01 nM

Fc1cc(Cl)cc(OC(c2ccccc2)C2CCNC2)c1 (centres unmarked) [34-5]
SERT Ki/NET Ki [1, 3]: 0.1 | Ki ([2]; hNET binding assay): 3.16 nM

Clc1cc(Br)cc(OC(c2ccccc2)C2CCNC2)c1 (centres unmarked) [34-11]
SERT Ki/NET Ki [1, 3]: 0.1 | Ki ([2]; hNET binding assay): 2.51 nM

Clc1cc(Cl)cc(OC(c2ccccc2Cl)C2CCNC2)c1 (centres unmarked) [35-3]
SERT Ki/NET Ki [1, 4]: 0.1 | Ki ([2]; hNET binding): 3.16 nM

Fc1ccc(C(Oc2cc(Cl)cc(Cl)c2)C2CCNC2)cc1 (centres unmarked) [35-9]
SERT Ki/NET Ki [1, 4]: 0.1 | Ki ([2]; hNET binding): 7.94 nM

Cc1ccc(C(Oc2cc(Cl)cc(Cl)c2)C2CCNC2)cc1 (centres unmarked) [35-12]
SERT Ki/NET Ki [1, 4]: 0.1 | Ki ([2]; hNET binding): 7.94 nM

Fc1cc(F)cc(C(Oc2cc(Cl)cc(Cl)c2)C2CCNC2)c1 (centres unmarked) [35-14]
SERT Ki/NET Ki [1, 4]: 0.3 | Ki ([2]; hNET binding): 2 nM

Fc1cc(F)cc([C@@H](Oc2cc(Cl)cc(Cl)c2)[C@@H]2CCNC2)c1 [35-17]
SERT Ki/NET Ki [1, 4]: 0.2 | Ki ([2]; hNET binding): 1.58 nM

Fc1cc(Cl)cc(C(Oc2cc(Cl)cc(Cl)c2)C2CCNC2)c1 (centres unmarked) [35-18]
SERT Ki/NET Ki [1, 4]: 0.5 | Ki ([2]; hNET binding): 5.01 nM

Cc1cc(F)cc(C(Oc2cc(Cl)cc(Cl)c2)C2CCNC2)c1 (centres unmarked) [35-19]
SERT Ki/NET Ki [1, 4]: 0.4 | Ki ([2]; hNET binding): 6.31 nM

Fc1ccc(O[C@@H](c2ccccc2)[C@H]2CCNC2)c(F)c1F [36-1]
SERT Ki/NET Ki [1, 4]: 0.8 | Ki ([2]; hNET binding): 6.31 nM

Fc1c(Cl)ccc(O[C@@H](c2ccccc2)[C@H]2CCNC2)c1F [36-3]
SERT Ki/NET Ki [1, 4]: 0.1 | Ki ([2]; hNET binding): 6.31 nM

Cc1ccc(OC(c2ccccc2)C2CCNC2)c(F)c1F (centres unmarked) [36-5]
SERT Ki/NET Ki [1, 4]: 0.5 | Ki ([2]; hNET binding): 1.26 nM

Cc1c(F)ccc(OC(c2ccccc2)C2CCNC2)c1F (centres unmarked) [36-7]
SERT Ki/NET Ki [1, 4]: 0.3 | Ki ([2]; hNET binding): 5.01 nM

Fc1c(Cl)ccc(OC(c2ccccc2)C2CCNC2)c1Cl (centres unmarked) [36-10]
SERT Ki/NET Ki [1, 4]: 0.1 | Ki ([2]; hNET binding): 3.16 nM

Fc1cc(F)cc(C(Oc2ccc(F)c(F)c2F)C2CCNC2)c1 (centres unmarked) [37-1]
SERT Ki/NET Ki [1, 4]: 4 | Ki ([2]; hNET binding): 5.01 nM

Fc1cc(F)c(F)c(O[C@H](c2ccccc2)[C@@H]2CCNC2)c1 [38-1]
SERT Ki/NET Ki [1, 4]: 0.2 | Ki ([2]; hNET binding): 5.01 nM

Fc1cc(F)c(F)c(OC(c2ccccc2)C2CCNC2)c1 (centres unmarked) [38-2]
SERT Ki/NET Ki [1, 4]: 10 | Ki ([2]; hNET binding): 1.58 nM

Fc1cc(F)c(F)c(OC(c2ccccc2Cl)C2CCNC2)c1 (centres unmarked) [39-2]
SERT Ki/NET Ki [1, 4]: 0.6 | Ki ([2]; hNET binding): 6.31 nM

Fc1cc(F)cc(C(Oc2cc(F)cc(F)c2F)C2CCNC2)c1 (centres unmarked) [39-3]
SERT Ki/NET Ki [1, 4]: 0.4 | Ki ([2]; hNET binding): 6.31 nM

Fc1cc(F)cc(C(Oc2cc(Cl)cc(Cl)c2Cl)C2CCNC2)c1 (centres unmarked) [39-5]
SERT Ki/NET Ki [1, 4]: 0.2 | Ki ([2]; hNET binding): 3.16 nM

COc1ccc(F)c(OC(c2ccccc2)C2CCNC2)c1F (centres unmarked) [40-4]
SERT Ki/NET Ki [1, 4]: 6.3 | Ki ([2]; hNET binding): 0.631 nM

COc1ccc(F)c(F)c1O[C@H](c1ccccc1)[C@@H]1CCNC1 [40-8]
SERT Ki/NET Ki [1, 4]: 1 | Ki ([2]; hNET binding): 1 nM

Fc1ccc(Cl)c(Cl)c1OC(c1ccccc1)C1CCNC1 (centres unmarked) [40-12]
SERT Ki/NET Ki [1, 4]: 1.3 | Ki ([2]; hNET binding): 0.251 nM

Fc1ccc(Cl)c(Cl)c1OC(c1ccccc1)C1CCNC1 (centres unmarked) [40-13]
SERT Ki/NET Ki [1, 4]: 0.3 | Ki ([2]; hNET binding): 0.2 nM

Fc1ccc(Cl)c(F)c1OC(c1ccccc1)C1CCNC1 (centres unmarked) [40-14]
SERT Ki/NET Ki [1, 4]: 0.4 | Ki ([2]; hNET binding): 0.501 nM

Fc1ccc(Cl)c(F)c1OC(c1ccccc1)C1CCNC1 (centres unmarked) [40-15]
SERT Ki/NET Ki [1, 4]: 1.3 | Ki ([2]; hNET binding): 0.251 nM

Fc1ccc(Cl)c(F)c1O[C@@H](c1ccccc1)[C@H]1CCNC1 [40-16]
SERT Ki/NET Ki [1, 4]: 10 | Ki ([2]; hNET binding): 0.158 nM

COc1ccc(F)c(Cl)c1O[C@@H](c1ccccc1)[C@H]1CCNC1 [40-22]
SERT Ki/NET Ki [1, 4]: 13 | Ki ([2]; hNET binding): 0.631 nM

COc1ccc(F)c(Cl)c1OC(c1ccccc1)C1CCNC1 (centres unmarked) [40-23]
SERT Ki/NET Ki [1, 4]: 0.1 | Ki ([2]; hNET binding): 3.16 nM

Cc1ccc(F)c(O[C@H](c2ccccc2)[C@@H]2CCNC2)c1F [40-24]
SERT Ki/NET Ki [1, 4]: 0.4 | Ki ([2]; hNET binding): 1.58 nM

Cc1ccc(F)c(OC(c2ccccc2)C2CCNC2)c1F (centres unmarked) [40-25]
SERT Ki/NET Ki [1, 4]: 2 | Ki ([2]; hNET binding): 0.501 nM

Cc1ccc(F)c(O[C@@H](c2ccccc2)[C@H]2CCNC2)c1F [40-26]
SERT Ki/NET Ki [1, 4]: 20 | Ki ([2]; hNET binding): 0.251 nM

Cc1ccc(Cl)c(OC(c2ccccc2)C2CCNC2)c1F (centres unmarked) [40-27]
SERT Ki/NET Ki [1, 4]: 5 | Ki ([2]; hNET binding): 0.251 nM

Cc1ccc(Cl)c(O[C@H](c2ccccc2)[C@@H]2CCNC2)c1F [40-28]
SERT Ki/NET Ki [1, 4]: 0.4 | Ki ([2]; hNET binding): 0.794 nM

Cc1ccc(F)c(O[C@H](c2ccccc2)[C@@H]2CCNC2)c1Cl [40-29]
SERT Ki/NET Ki [1, 4]: 0.4 | Ki ([2]; hNET binding): 0.2 nM

Cc1ccc(F)c(O[C@@H](c2ccccc2)[C@@H]2CCNC2)c1Cl [40-30]
SERT Ki/NET Ki [1, 4]: 0.1 | Ki ([2]; hNET binding): 5.01 nM

COc1ccc(F)c(OC(c2ccccc2)C2CCNC2)c1Cl (centres unmarked) [40-35]
SERT Ki/NET Ki [1, 4]: 0.3 | Ki ([2]; hNET binding): 0.398 nM
